Results published in patent publication US20210300932A1, “CYCLIC PEPTIDES TARGETING ALPHA-4-BETA-7 INTEGRIN” (Zealand Pharma A/S, priority 2015, published 2021).

Key:
[1] = system: integrin alpha-4-beta-7-expressing T lymphocytes; assay: In vivo T lymphocyte trafficking analyses in DSS-treated mice; parameters: species or system C57BI/6 mice
Protocol: In Vivo T Lymphocyte Trafficking Analyses
(§1) Animals. Female C57BI/6 mice (Charles River, St-Constant, Qc), weighting 16-19 g at delivery were used for this study. Following arrival in the animal facility, all animals were subjected to a general health evaluation. An acclimation period of 7-14 days was allowed before the beginning of the study.
Administration of DSS. Dextran sulfate sodium (DSS) was administered to C57B1/6 mice through addition to their drinking water at 2-3%. Mice accessed the DSS-treated water ad libitum over a 5-day period. Body weight and disease activity index (“DAI”) were measured on Day 5 in order to distribute DSS-treated animals in two uniform groups prior to dosing. Specific symptoms associated with colitis were scored based on the severity of each particular symptoms: 1—blood in stool (negative hemoccult, positive hemoccult, blood traces in stool visible, rectal bleeding); 2—stool consistency (normal, soft but still formed, very soft, diarrhea); 3—posture and fur (normal; ruffled fur; ruffled fur combined to slight hunched posture and slight dehydration; ruffled fur combined to hunched posture, dehydration and altered walking; moribund (euthanasia is mandatory before the animal reach this point). The overall DAI score was the sum of the three parameters (maximum score of 9). DAI assessment was performed on Day 5 only (prior to dosing). […]

in vitro = details: Control buffer/Buffer at 0.1 uM % Recovery
Protocol: (§2) An equilibrium dialysis (HTDialysis) method was used employing 50% plasma collected from CD-1 mice or Sprague-Dawley rats and incubated with K2EDTA. Test articles were assessed at 1 microM concentration in three replicates. Incubation time as 5 hours and plasma and buffer standards were assessed using LC/MS/MS. Percentage recovery was calculated as (Cbuffer+Cplasma)/[average]Cinitial, [average]Cinitial being measured in triplicate from the test samples prior to dialysis. Percentage of compound unbound was calculated as Cbuffer/Cplasma.

[2] = Plasma protein binding determination, equilibrium dialysis, mouse plasma; details: first table
Protocol: as §2

plasma proteins = assay: as above; details: CD-1, mouse, % recovery, Mouse plasma, equilibrium dialysis
Protocol: as §2

in vivo = details: male, CD-1, mouse, po, 48 mg/kg
Protocol: In Vivo Pharmacokinetic Assessments in Rodents
Oral bioavailability of test compounds was conducted by assessing plasma exposure of following one or two oral doses in mice and, in some cases, comparing said plasma exposure with that following a single intravenous dose of the same compound.
Body weights were recorded on the day of dosing.
Food restriction: Animals dosed p.o. were deprived of food overnight and fed ˜2 h following dosing.
Dosing: The formulation containing the test compound were administered p.o. by gavage with disposable feeding needles.
Sample collection: Terminal blood and tissue samples were collected under O2/CO2 anesthesia by cardiac puncture.
Sample processing/storage: All blood samples were transferred into K2EDTA tubes on wet ice and centrifuged within 5 min (3200×g for 5 min at 4° C.) to obtain plasma. Samples were stored frozen at −80° C. until bioanalysis.
Bioanalytical Method Qualification and Sample Analysis:
Instrumentation: AB Sciex API 4000 Q-TRAP MS/MS system equipped with an Agilent LC system with a binary pump, a solvent degasser, a thermostatted column compartment, a CTC autosampler and a divert valve installed between the column and mass spectrometer inlet.

Aqueous solubility assay = assay type: physicochemical; details: PBS pH 7.4, four hours, room temperature
Protocol: Solutions were incubated for four hours at room temperature and stirred at 600 rpm and run in triplicate. Centrifugation was performed for 15 minutes at 6000 rpm and solution concentration was determined using HPLC-UV (photodiode array detector acquiring between 220 nm, and 300 nm wavelengths).

[3] = system: DSS experimental model of ulcerative colitis; assay: 8-Day efficacy study in DSS model (therapeutic); assay type: in vivo, C57BI/6 mice; details: for reduction of lesion length vs vehicle group / reduction of DAI score on Day 8 vs DSS+vehicle: Day 5 to Day 8
Excerpt: The STDs in ascending order bracketing the study samples and dosing solutions • 1. The study samples • 2.
Description of Tested Compounds
as §1
Oral dosing of the test article and the vehicle. From Day 5 to Day 8, nacellins and the vehicle were administered as a single slow bolus (over approximately 5 seconds) via oral route (p.o.), according to the procedure of administration of solution by gavage: the animal was firmly restrained. A bulb-tipped gastric gavage needle of 22G was passed through the side of the mouth and was advanced towards the oesophagus. The test articles and the vehicle were dosed orally at 5 mL/kg.
Intraperitoneal dosing of the test articles and the vehicle. On day 5, DATK32 antibody was administered in only on Day 5, as a single slow bolus (over approximately 5 seconds) via the i.p. route. […] Intraperitoneal administration was performed accordingly to the following procedure: the mouse was restrained manually and held with the head and body tilted downward. The tip of the needle (27 G) was inserted through the skin and just past the abdominal wall. A short pull back of the plunger of the syringe was done prior to administration of the solution to make sure that the syringe was not inserted in any abdominal organ (fluid would be pulled back into the syringe in this case).
Inflammation Score. Once the mouse was euthanized, the colon was collected and its length was measured. Lesion length was also measured. Colon inflammation was scored based on severity of oedema and ulceration.
Disease Activity Index (DAI) assessment. Body weight and DAI were measured on Day 5 in order to distribute DSS-treated animals in two uniform groups prior dosing. Specific symptoms associated to UC were scored based on the severity of each particular symptoms: 1—blood in stool (negative hemoccult, positive hemoccult, blood traces in stool visible, rectal bleeding); 2—stool consistency (normal, soft but still formed, very soft, diarrhea); 3—posture and fur (normal; ruffled fur; ruffled fur combined to slight hunched posture and slight dehydration; ruffled fur combined to hunched posture, dehydration and altered walking; moribund (euthanasia is mandatory before the animal reach this point). The overall DAI score was the sum of the three parameters (maximum score 9). Body weight measurement and DAI assessment were performed also on Day 8 to evaluate the effect of the treatments.
Collection of samples. On Day 8, five hours after ET02451-01, ET02452-01 and vehicle dosing, the animals were euthanized by cardiac puncture under general anesthesia, according to the “Guide to the Care and Use of Experimental Animals” published by the CCAC. Blood was transferred in a Sarstedt tube containing EDTA. Mesenteric and peripheral (inguinal, auxiliary and brachial) lymph nodes were collected and transferred on ice in corresponding tubes containing cold PBS. Nodes were kept on ice until tissue preparation.
Cell population labeling. Blood was withdrawn by cardiac puncture and collected on EDTA-coated tubes. Mensenteric lymph nodes (MLN) and peripheral lymph nodes (PLN) were also collected. Mononuclear cells from the tissues will be isolated using density gradient (Lympholyte) and they were stained with fluorescent antibodies. […] After washes, cells were fixed using BD Fix Solution. Percentage of different subpopulations of T lymphocytes were then analysed using FACSCalibur cytometer. Antibodies employed were the same as listed for the single-dose PD studies above.

SMILES: CC(C)C[C@@H]1NC(=O)CN(C)C(=O)[C@H](Cc2ccc(O)cc2)NC(=O)[C@@H]2CCCN2[C@H](C(=O)NC(C)(C)C)[C@H](C)NC(=O)[C@H]([C@@H](C)O)NC(=O)[C@H](CC(=O)O)NC1=O [Compound No. 105]
- homing to the MLN ([1]; single oral dose 200 mg/kg): significant and robust attenuation of homing

SMILES: CC(C)C[C@@H]1NC(=O)[C@H](Cc2ccc(-c3ccccc3)cc2)NC(=O)[C@@H]2CCCN2[C@H](C(=O)NC(C)(C)C)[C@H](C)NC(=O)[C@H]([C@@H](C)O)NC(=O)[C@H](CC(=O)O)NC1=O [Compound No. 12]
- recovery at 5 hours, 0.1 uM (in vitro): 128%
- Control buffer/Buffer at 0.1 uM Cdonor/Creciever [2]: 94%
- recovery at 5 hours, 1 microM (plasma proteins; second table): 89%

SMILES: CC(C)C[C@@H]1NC(=O)[C@H](Cc2c[nH]c3ccccc23)NC(=O)[C@@H]2CCCN2[C@H](C(=O)NC(C)(C)C)[C@H](C)NC(=O)[C@H]([C@@H](C)O)NC(=O)[C@H](CC(=O)O)NC1=O [ET00762]
- Control buffer/Buffer at 0.1 uM Cdonor/Creciever [2]: 79%

SMILES: CC(C)C[C@@H]1NC(=O)[C@H](Cc2ccccc2)NC(=O)[C@@H]2CCCN2[C@H](C(=O)NC(C)(C)C)[C@H](C)NC(=O)[C@H]([C@@H](C)O)NC(=O)[C@H](CC(=O)O)NC1=O [Compound No. 5]
- homing to the MLN ([1]; single oral dose 100 mg/kg): significant reduction of homing
- Cmax (in vivo): ~1600 ng/mL
- recovery at 5 hours, 0.1 uM (in vitro): 108%
- Control buffer/Buffer at 0.1 uM Cdonor/Creciever [2]: 80%
- recovery at 5 hours, 1 microM (plasma proteins; first table): 130%
- recovery at 5 hours, 1 microM (plasma proteins; second table): 97%

SMILES: CC(C)C[C@@H]1NC(=O)[C@@H](Cc2ccncc2)NC(=O)[C@@H]2CCCN2[C@H](C(=O)NC(C)(C)C)[C@H](C)NC(=O)[C@H]([C@@H](C)O)NC(=O)[C@H](CC(=O)O)NC1=O [Compound No. 62]
- Determined Concentration Rep 2 (Aqueous solubility assay): 988.2 µM

SMILES: CC(C)C[C@@H]1NC(=O)C2(CCCC2)NC(=O)[C@@H]2CCCN2[C@H](C(=O)NC(C)(C)C)[C@H](C)NC(=O)[C@H]([C@@H](C)O)NC(=O)[C@H](CC(=O)O)NC1=O [Compound No. 88]
- Determined Concentration Rep 3 (Aqueous solubility assay): 934.8 µM

SMILES: CC(C)C[C@@H]1NC(=O)c2ccc(-c3ccnc4ccccc34)c(c2)CNC(=O)[C@@H]2CCCN2[C@H](C(=O)NC(C)(C)C)[C@H](C)NC(=O)[C@H]([C@@H](C)O)NC(=O)[C@H](CC(=O)O)NC1=O [Compound No. 341]
- reduction of lesion length vs vehicle group ([3]; 40 mg/kg p.o.): 53%
- reduction of DAI score on Day 8 vs DSS+vehicle ([3]; 40 mg/kg p.o., b.i.d.): did not have any beneficial effect
- CD3+CD4+α4β7+ cell population in mesenteric lymph nodes ([3]; 65 mg/kg i.p.): significant decrease
- reduction of colon inflammation score vs vehicle ([3]; 65 mg/kg i.p.): 39%
- reduction of DAI score on Day 8 vs DSS+vehicle ([3]; 65 mg/kg i.p.): 46%
- reduction of lesion length vs vehicle group ([3]; 65 mg/kg i.p.): 20%

SMILES: CC(C)C[C@@H]1NC(=O)[C@@H](Cc2ccc(O)cc2)NC(=O)[C@@H]2CCCN2[C@H](C(=O)NC(C)(C)C)[C@H](C)NC(=O)[C@H]([C@@H](C)O)NC(=O)[C@H](CC(=O)O)NC1=O [Compound No. 42]
- Determined Concentration Rep 2 (Aqueous solubility assay): 960.0 µM

SMILES: CC(C)NCC(O)COc1cccc2ccccc12 (stereo not drawn) [Propranalol, propranolol, reference compound]
- % unbound (Cbuffer/Cplasma) 1 ([2]; Mouse plasma, 1 microM, replicate 1): 22.8%
